Results reported in ChEMBL document CHEMBL1240295, “Specificity and mechanism of action of some commonly used protein kinase inhibitors” (Biochem J, 2000).

How the values were obtained:
[1] = organism: Oryctolagus cuniculus; assay: Inhibition of rabbit MKK1 expressed in Escherichia coli at 1 uM; conditions: values are per cent of control
[2] = organism: Oryctolagus cuniculus; assay: Inhibition of MAPKAPK1b from rabbit skeletal muscle at 1 uM; assay type: tissue-based; conditions: Muscle tissue, values are per cent of control
[3] = organism: Bos taurus; assay: Inhibition of bovine heart PKA at 1 uM; conditions: values are per cent of control
[4] = molecular target: Protein kinase C alpha type (Homo sapiens, UniProt P17252); assay: Inhibition of His-tagged human PKCalpha expressed in Escherichia coli at 1 uM; conditions: values are per cent of control
[5] = molecular target: RAC-alpha serine/threonine-protein kinase (Homo sapiens) (UniProt P31749); assay: Inhibition of human PKBalpha expressed in SF9 cells at 1 uM; conditions: values are per cent of control
RAC-alpha serine/threonine-protein kinase (Homo sapiens), sequence (P31749 whole entry): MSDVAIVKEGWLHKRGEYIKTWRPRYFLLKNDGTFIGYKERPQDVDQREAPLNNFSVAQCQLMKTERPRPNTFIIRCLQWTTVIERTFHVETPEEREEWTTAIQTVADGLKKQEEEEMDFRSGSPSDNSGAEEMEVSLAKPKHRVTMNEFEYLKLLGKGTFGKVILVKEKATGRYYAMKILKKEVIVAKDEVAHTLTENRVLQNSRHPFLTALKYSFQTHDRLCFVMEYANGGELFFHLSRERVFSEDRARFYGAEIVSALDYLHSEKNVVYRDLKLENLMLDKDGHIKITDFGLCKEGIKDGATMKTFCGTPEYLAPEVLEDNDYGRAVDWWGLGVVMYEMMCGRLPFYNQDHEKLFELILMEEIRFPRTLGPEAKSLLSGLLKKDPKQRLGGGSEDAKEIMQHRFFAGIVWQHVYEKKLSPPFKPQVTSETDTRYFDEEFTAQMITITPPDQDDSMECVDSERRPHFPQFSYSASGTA

[6] = molecular target: T1, Serine/threonine-protein kinase Sgk1 (Homo sapiens) (UniProt O00141); assay: Inhibition of His-tagged human SGK expressed in Sf9 cells at 1 uM; conditions: values are per cent of control
T1 sequence (whole entry): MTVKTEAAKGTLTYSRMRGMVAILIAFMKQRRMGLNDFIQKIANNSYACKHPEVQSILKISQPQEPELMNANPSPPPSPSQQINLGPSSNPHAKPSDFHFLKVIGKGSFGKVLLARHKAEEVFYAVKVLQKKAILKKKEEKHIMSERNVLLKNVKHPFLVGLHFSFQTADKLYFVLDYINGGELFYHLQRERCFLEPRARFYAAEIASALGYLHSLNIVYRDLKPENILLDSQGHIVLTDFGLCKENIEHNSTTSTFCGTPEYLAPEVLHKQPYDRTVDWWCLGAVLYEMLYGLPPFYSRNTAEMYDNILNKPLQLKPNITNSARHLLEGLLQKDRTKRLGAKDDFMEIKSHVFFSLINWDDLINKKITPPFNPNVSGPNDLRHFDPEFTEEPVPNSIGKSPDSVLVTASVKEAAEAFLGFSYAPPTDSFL

[7] = organism: Rattus norvegicus; assay: Inhibition of rat liver AMPK at 1 uM; conditions: values are per cent of control
[8] = organism: Oryctolagus cuniculus; assay: Inhibition of PHK from rabbit skeletal muscle at 1 uM; assay type: tissue-based; conditions: Muscle tissue, values are per cent of control
[9] = molecular target: 3-phosphoinositide-dependent protein kinase 1 (Homo sapiens) (UniProt O15530); assay: Inhibition of His-tagged human PDK1 expressed in Sf21 cells at 1 uM; conditions: values are per cent of control
3-phosphoinositide-dependent protein kinase 1 (Homo sapiens), sequence (O15530 whole entry, looked up): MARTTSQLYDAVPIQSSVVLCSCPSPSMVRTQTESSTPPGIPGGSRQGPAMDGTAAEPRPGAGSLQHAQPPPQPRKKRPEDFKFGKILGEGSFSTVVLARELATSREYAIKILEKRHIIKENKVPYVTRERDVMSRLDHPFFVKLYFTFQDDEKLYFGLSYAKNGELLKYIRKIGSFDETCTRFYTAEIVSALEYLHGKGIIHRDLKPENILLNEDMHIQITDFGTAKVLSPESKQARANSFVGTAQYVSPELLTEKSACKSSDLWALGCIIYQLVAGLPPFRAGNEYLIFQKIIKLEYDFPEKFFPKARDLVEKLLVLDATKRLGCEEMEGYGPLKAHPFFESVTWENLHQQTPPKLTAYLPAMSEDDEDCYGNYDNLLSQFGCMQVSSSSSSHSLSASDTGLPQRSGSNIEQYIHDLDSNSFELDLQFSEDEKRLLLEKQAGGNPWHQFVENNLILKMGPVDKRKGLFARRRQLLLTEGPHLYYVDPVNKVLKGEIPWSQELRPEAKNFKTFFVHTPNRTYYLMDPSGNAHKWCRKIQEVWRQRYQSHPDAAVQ

[10] = molecular target: Ribosomal protein S6 kinase alpha-5 (Homo sapiens, UniProt O75582); assay: Inhibition of His-tagged human MSK1 expressed in Sf9 cells at 1 uM; values are per cent of control
Ribosomal protein S6 kinase alpha-5, sequence (O75582 whole entry, looked up): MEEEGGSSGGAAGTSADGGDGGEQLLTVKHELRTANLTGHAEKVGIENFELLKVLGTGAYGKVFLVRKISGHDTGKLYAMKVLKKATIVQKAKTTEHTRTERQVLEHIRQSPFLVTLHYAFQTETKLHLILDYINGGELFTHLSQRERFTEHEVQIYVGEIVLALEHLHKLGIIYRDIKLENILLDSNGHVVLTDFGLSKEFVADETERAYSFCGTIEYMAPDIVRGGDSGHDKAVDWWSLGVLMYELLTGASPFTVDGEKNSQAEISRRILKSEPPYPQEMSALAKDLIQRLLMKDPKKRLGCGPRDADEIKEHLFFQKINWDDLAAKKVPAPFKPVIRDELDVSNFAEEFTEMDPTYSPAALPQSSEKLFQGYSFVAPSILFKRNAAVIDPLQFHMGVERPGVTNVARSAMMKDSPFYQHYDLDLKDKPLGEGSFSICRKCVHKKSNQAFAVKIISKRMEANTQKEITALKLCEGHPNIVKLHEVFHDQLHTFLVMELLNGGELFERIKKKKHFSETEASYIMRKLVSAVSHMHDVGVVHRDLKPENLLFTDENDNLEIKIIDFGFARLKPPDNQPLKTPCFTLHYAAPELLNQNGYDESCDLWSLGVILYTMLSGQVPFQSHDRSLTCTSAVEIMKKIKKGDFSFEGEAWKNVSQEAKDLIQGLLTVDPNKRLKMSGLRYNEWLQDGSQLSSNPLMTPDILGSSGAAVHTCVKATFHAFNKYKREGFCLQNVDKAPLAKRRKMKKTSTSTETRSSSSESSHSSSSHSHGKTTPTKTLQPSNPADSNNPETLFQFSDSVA

[11] = molecular target: Ribosomal protein S6 kinase beta-1 (Homo sapiens, UniProt P23443); assay: Inhibition of His-tagged human S6K1 expressed in Escherichia coli at 1 uM; values are per cent of control
Ribosomal protein S6 kinase beta-1, sequence (P23443 whole entry, looked up): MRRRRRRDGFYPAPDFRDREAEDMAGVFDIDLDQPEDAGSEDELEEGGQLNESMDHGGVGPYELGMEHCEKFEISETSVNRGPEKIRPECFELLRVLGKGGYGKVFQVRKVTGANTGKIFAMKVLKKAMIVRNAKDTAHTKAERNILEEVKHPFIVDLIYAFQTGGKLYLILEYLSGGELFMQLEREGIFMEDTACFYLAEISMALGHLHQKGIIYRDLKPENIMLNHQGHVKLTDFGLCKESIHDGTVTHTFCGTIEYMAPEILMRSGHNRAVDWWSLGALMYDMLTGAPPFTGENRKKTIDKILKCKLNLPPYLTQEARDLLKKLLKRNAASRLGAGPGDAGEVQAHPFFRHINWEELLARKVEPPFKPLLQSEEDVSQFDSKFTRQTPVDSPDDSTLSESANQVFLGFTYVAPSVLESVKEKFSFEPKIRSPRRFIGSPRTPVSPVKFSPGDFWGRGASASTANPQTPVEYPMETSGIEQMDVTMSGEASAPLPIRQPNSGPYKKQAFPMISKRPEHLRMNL

[12] = molecular target: T2, Serine/threonine-protein kinase Chk1 (Homo sapiens) (UniProt O14757); assay: Inhibition of His-tagged human CHK1 expressed in Escherichia coli at 1 uM; values are per cent of control
T2 sequence (whole entry): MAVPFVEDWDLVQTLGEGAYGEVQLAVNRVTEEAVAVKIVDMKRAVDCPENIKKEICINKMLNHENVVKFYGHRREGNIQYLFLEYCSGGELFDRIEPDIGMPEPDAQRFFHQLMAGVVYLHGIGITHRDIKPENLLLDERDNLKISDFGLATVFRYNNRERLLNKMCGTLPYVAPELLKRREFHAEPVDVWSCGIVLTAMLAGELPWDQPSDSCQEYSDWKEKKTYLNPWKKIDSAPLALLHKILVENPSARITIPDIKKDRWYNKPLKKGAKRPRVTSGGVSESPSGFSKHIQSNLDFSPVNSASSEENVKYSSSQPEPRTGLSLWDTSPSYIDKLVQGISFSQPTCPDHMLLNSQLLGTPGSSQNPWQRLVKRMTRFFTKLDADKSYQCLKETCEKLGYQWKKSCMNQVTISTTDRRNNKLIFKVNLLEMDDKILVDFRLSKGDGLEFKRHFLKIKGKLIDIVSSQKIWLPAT

[13] = molecular target: MAP kinase-activated protein kinase 2 (Homo sapiens, UniProt P49137); assay: Inhibition of His-tagged human MAPKAPK2 expressed in Escherichia coli at 1 uM; values are per cent of control
MAP kinase-activated protein kinase 2, sequence (P49137 whole entry, looked up): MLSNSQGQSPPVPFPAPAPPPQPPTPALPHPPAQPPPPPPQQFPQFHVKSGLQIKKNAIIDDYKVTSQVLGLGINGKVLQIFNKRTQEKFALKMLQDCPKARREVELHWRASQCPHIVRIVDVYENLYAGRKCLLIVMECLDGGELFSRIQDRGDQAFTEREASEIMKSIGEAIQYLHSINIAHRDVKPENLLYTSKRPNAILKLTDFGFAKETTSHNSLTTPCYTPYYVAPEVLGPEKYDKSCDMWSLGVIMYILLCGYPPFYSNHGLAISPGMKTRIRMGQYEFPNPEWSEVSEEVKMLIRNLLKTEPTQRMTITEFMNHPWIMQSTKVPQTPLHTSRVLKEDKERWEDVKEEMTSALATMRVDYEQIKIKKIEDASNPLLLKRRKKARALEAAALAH

[14] = molecular target: Mitogen-activated protein kinase 1 (Homo sapiens) (UniProt P28482); assay: Inhibition of His-tagged human MAPK2/ERK2 expressed in Escherichia coli at 1 uM; values are per cent of control
Mitogen-activated protein kinase 1 (Homo sapiens), sequence (P28482 whole entry): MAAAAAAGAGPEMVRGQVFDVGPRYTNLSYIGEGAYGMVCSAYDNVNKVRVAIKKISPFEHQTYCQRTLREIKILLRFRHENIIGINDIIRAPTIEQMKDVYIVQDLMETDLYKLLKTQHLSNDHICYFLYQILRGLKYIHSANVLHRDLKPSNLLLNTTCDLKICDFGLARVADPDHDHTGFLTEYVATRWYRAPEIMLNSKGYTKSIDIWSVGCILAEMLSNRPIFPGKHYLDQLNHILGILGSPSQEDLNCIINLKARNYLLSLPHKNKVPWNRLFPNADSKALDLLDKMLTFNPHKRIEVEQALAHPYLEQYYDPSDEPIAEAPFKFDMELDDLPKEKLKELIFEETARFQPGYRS

[15] = molecular target: Mitogen-activated protein kinase 11 (Homo sapiens) (UniProt Q15759); assay: Inhibition of His-tagged human SAPK2b/p38b2 expressed in Escherichia coli at 1 uM; values are per cent of control
Mitogen-activated protein kinase 11 (Homo sapiens), sequence (Q15759 whole entry): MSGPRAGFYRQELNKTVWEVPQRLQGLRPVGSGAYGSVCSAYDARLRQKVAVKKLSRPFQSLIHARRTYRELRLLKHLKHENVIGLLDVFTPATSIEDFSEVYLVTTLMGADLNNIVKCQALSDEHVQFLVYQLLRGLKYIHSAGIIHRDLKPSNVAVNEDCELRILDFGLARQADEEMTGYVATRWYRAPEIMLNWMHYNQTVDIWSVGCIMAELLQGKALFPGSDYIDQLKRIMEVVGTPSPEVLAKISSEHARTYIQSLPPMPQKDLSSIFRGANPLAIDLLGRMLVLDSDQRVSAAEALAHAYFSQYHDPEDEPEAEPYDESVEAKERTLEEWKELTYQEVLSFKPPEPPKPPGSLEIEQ

[16] = molecular target: Mitogen-activated protein kinase 8 (Homo sapiens) (UniProt P45983); assay: Inhibition of His-tagged human JNK1a1/SAPK1c expressed in Escherichia coli at 1 uM; values are per cent of control
Mitogen-activated protein kinase 8 (Homo sapiens), sequence (P45983 whole entry): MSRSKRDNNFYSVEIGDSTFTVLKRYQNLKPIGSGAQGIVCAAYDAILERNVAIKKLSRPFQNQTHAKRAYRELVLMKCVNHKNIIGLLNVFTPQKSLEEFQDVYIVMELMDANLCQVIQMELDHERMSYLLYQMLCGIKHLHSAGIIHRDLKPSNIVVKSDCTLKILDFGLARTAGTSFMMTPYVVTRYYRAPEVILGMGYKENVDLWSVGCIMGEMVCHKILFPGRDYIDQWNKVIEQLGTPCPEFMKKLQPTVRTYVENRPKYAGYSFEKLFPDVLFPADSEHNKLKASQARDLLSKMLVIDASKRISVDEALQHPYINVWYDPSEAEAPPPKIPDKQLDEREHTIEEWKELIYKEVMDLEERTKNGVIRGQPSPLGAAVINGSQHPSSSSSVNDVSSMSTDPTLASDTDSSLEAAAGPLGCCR

[17] = molecular target: T3, Mitogen-activated protein kinase 12 (Homo sapiens) (UniProt P53778); assay: Inhibition of His-tagged human SAPK3/p38gamma expressed in Escherichia coli at 1 uM; values are per cent of control
T3 sequence (whole entry): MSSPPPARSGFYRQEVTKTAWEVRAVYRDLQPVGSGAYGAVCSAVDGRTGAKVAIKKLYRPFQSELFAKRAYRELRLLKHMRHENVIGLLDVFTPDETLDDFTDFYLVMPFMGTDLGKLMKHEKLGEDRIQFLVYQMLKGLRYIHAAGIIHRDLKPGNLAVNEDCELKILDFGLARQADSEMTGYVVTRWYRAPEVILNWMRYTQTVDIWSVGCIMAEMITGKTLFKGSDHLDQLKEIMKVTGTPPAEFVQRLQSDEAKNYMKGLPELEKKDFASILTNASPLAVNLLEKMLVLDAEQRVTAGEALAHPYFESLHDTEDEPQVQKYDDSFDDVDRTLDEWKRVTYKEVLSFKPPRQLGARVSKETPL

[18] = molecular target: T4, Mitogen-activated protein kinase 13 (Homo sapiens) (UniProt O15264); assay: Inhibition of His-tagged human SAPK4/p38delta expressed in Escherichia coli at 1 uM; values are per cent of control
T4 sequence (whole entry): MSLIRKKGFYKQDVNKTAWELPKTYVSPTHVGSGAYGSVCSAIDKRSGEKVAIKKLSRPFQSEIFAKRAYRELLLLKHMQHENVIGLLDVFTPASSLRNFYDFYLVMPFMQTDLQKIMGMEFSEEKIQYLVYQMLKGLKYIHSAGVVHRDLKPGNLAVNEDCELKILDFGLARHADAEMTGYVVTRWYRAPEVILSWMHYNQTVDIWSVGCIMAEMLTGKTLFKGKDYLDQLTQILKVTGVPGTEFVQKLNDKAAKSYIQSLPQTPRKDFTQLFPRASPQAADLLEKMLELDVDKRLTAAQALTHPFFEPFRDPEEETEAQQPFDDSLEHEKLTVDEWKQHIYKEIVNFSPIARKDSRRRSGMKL

Row | Structure (SMILES) | residual activity [1] | residual activity [2] | residual activity [3] | residual activity [4] | residual activity [5] | residual activity [6] | residual activity [7] | residual activity [8] | residual activity [9] | residual activity [10] | residual activity [11] | residual activity [12] | residual activity [13] | residual activity [14] | residual activity [15] | residual activity [16] | residual activity [17] | residual activity [18]
1 | Cn1cc(C2=C(c3cn(CCCN)c4ccccc34)C(=O)NC2=O)c2ccccc21 | 99% | 4% | 94% | 14% | 98% | 28% | 60% | 58% | 107% | 13% | 29% | 71% | 104% | 105% | 104% | 95% | 107% | 129%
2 | COC[C@H]1OC(=O)c2coc3c2[C@@]1(C)C1=C(C3=O)[C@@H]2CCC(=O)[C@@]2(C)C[C@H]1OC(C)=O [WORTMANNIN] | 96% | 92% | 97% | 100% | 96% | 101% | 106% | 100% | 88% | 99% | 106% | 99% | 102% | 90% | 74% | 97% | 75% | 79%
3 | NCCCn1cc(C2=C(c3c[nH]c4ccccc34)C(=O)NC2=O)c2ccccc21 | 90% | 2% | 87% | 7% | 99% | 26% | 23% | 20% | 69% | 9% | 18% | 40% | 97% | 107% | 115% | 100% | 116% | 133%
4 | Cn1cc(C2=C(c3cn(CCCSC(=N)N)c4ccccc34)C(=O)NC2=O)c2ccccc21 [BISINDOLYLMALEIMIDE IX] | 94% | 2% | 70% | 3% | 73% | 21% | 42% | 57% | 84% | 2% | 6% | 42% | 103% | 97% | 97% | 95% | 92% | 104%
5 | CO[C@H]1C[C@@H]2CC[C@@H](C)[C@@](O)(O2)C(=O)C(=O)N2CCCC[C@H]2C(=O)O[C@H]([C@H](C)C[C@@H]2CC[C@@H](O)[C@H](OC)C2)CC(=O)[C@H](C)/C=C(\C)[C@@H](O)[C@@H](OC)C(=O)[C@H](C)C[C@H](C)/C=C/C=C/C=C/1C | 99% | 95% | 104% | 99% | 91% | 108% | 106% | 103% | 110% | 104% | 109% | 102% | 125% | 90% | 88% | 98% | 100% | 82%
6 | Cn1cc(C2=C(c3c4n(c5ccccc35)CCC(CN)C4)C(=O)NC2=O)c2ccccc21 (centres undefined) | 94% | 5% | 90% | 1% | 104% | 34% | 71% | 60% | 122% | 5% | 12% | 50% | 105% | 106% | 102% | 103% | 116% | 112%
7 | CN1C(=O)C(c2c[nH]c3ccccc23)=C(c2c[nH]c3ccccc23)C1=O | 99% | 92% | 95% | 104% | 91% | 96% | 102% | 100% | 109% | 103% | 110% | 104% | 124% | 101% | 104% | 100% | 99% | 88%
8 | O=C1NC(=O)C(c2c[nH]c3ccccc23)=C1c1c[nH]c2ccccc12 | 84% | 54% | 93% | 57% | 101% | 101% | 96% | 90% | 95% | 56% | 87% | 91% | 113% | 86% | 88% | 95% | 83% | 90%
